Results from BindingDB's records for doi:10.1111/cbdd.12241 (Chengde Medical University, 2014).

Molecular target: T1, Glycogen phosphorylase, muscle form (Oryctolagus cuniculus, UniProt P00489)
T1 sequence (P00489 whole entry): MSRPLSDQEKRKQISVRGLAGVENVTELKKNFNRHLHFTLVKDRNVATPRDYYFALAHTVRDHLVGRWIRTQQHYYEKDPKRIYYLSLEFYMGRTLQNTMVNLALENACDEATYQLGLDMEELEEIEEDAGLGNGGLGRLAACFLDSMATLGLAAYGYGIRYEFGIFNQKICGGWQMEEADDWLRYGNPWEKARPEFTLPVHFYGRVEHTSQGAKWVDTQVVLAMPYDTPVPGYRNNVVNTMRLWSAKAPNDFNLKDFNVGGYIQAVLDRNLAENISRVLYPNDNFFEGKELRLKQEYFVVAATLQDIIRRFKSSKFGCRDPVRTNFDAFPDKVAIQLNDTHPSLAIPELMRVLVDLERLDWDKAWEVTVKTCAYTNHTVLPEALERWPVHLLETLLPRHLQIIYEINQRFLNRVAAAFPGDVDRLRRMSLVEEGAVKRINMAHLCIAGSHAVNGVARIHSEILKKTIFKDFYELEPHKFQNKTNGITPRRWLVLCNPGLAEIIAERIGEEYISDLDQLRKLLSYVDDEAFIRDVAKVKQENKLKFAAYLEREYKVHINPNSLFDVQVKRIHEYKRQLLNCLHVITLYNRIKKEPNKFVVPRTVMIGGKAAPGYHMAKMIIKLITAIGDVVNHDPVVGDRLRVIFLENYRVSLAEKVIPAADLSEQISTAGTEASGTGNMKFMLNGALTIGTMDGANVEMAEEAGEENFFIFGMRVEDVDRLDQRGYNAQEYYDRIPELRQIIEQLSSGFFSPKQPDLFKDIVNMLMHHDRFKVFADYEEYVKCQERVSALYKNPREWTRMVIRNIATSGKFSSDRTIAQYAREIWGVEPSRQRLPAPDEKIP
Experiment: Inhibition Assay
Conditions: pH 7.2; 22 °C
Description: Each compound was dissolved in DMSO and diluted at different concentrations. RMGPa was added to 100 µL of buffer (50 mM Hepes pH 7.2, 100 mM KCl, 2.5 mM MgCl2, 0.5 mM glucose-1-phosphate, 1 mg/mL glycogen, and compound in 96-well microplates. Reaction was […] by the addition of 150 µL of 1 M HCl containing 10 mg/mL ammonium molybdate and 0.38 mg/mL malachite green and run for 25 min at 22 C.

| Compound | IC50 [µM] |
| --- | --- |
| CCCCCCCCCC(=O)OCc1cn(CC(=O)O[C@H]2CC[C@]3(C)[C@H]4CC=C5[C@@H]6CC(C)(C)CC[C@]6(C(=O)O)CC[C@@]5(C)[C@]4(C)CC[C@H]3C2(C)C)nn1 [3b-[2-(4-decanoyloxymethyl-1H-1,2,3-triazol-1-yl)acetoxy]olean-12-en-28-oic acid (Compound 8b)] | 25.6 |
| CCCCCCCCCCCC(=O)OCc1cn(CC(=O)O[C@H]2CC[C@]3(C)[C@H]4CC=C5[C@@H]6CC(C)(C)CC[C@]6(C(=O)O)CC[C@@]5(C)[C@]4(C)CC[C@H]3C2(C)C)nn1 [3b-[2-(4-dodecanoyloxymethyl-1H-1,2,3-triazol-1-yl)acetoxy]olean-12-en-28-oic acid (Compound 8c)] | 8.4 |
| CCCCCCCCC(=O)OCc1cn(CC(=O)O[C@H]2CC[C@]3(C)[C@H]4CC=C5[C@@H]6CC(C)(C)CC[C@]6(C(=O)O)CC[C@@]5(C)[C@]4(C)CC[C@H]3C2(C)C)nn1 [3b-[2-(4-nonanoyloxymethyl-1H-1,2,3-triazol-1-yl)acetoxy]olean-12-en-28-oic acid (Compound 8a)] | 77.1 |
| CCCCCCCCCCCCCCCC(=O)OCc1cn(CC(=O)O[C@H]2CC[C@]3(C)[C@H]4CC=C5[C@@H]6CC(C)(C)CC[C@]6(C(=O)O)CC[C@@]5(C)[C@]4(C)CC[C@H]3C2(C)C)nn1 [3b-[2-(4-palmitoyloxymethyl-1H-1,2,3-triazol-1-yl)acetoxy]olean-12-en-28-oic acid (Compound 8d)] | 221 |
| CCCCCCCCCCCCCCCCCC(=O)OCc1cn(CC(=O)O[C@H]2CC[C@]3(C)[C@H]4CC=C5[C@@H]6CC(C)(C)CC[C@]6(C(=O)O)CC[C@@]5(C)[C@]4(C)CC[C@H]3C2(C)C)nn1 [3b-[2-(4-stearoyloxymethyl-1H-1,2,3-triazol-1-yl)acetoxy]olean-12-en-28-oic acid (Compound 8e)] | 11.2 |
| COc1ccc(C(=O)OCc2cn(CC(=O)O[C@H]3CC[C@]4(C)[C@H]5CC=C6[C@@H]7CC(C)(C)CC[C@]7(C(=O)O)CC[C@@]6(C)[C@]5(C)CC[C@H]4C3(C)C)nn2)cc1 [3b-{2-[4-(4-methoxybenzoyloxy)methyl-1H-1,2,3-triazol-1-yl]acetoxy}olean-12-en-28-oic acid (Compound 8f)] | 34.6 |
| CCCCCCCCCC(=O)OCc1cn(CC(=O)O[C@H]2CC[C@]3(C)[C@H]4CC=C5[C@@H]6CC(C)(C)CC[C@]6(C(=O)OCc6ccccc6)CC[C@@]5(C)[C@]4(C)CC[C@H]3C2(C)C)nn1 [Benzyl 3b-[2-(4-decanoyloxymethyl-1H-1,2,3-triazol-1-yl)acetoxy]olean-12-en-28-oate (Compound 7b)] | 144 |
| CCCCCCCCC(=O)OCc1cn(CC(=O)O[C@H]2CC[C@]3(C)[C@H]4CC=C5[C@@H]6CC(C)(C)CC[C@]6(C(=O)OCc6ccccc6)CC[C@@]5(C)[C@]4(C)CC[C@H]3C2(C)C)nn1 [Benzyl 3b-[2-(4-nonanoyloxymethyl-1H-1,2,3-triazol-1-yl)acetoxy]olean-12-en-28-oate (Compound 7a)] | 80.1 |
| CC1(C)CC[C@]2(C(=O)OCc3ccccc3)CC[C@]3(C)C(=CC[C@@H]4[C@@]5(C)CC[C@H](OC(=O)Cn6cc(COC(=O)Cc7ccc8ccccc8c7)nn6)C(C)(C)[C@@H]5CC[C@]43C)[C@@H]2C1 [Benzyl 3b-{2-[4-(2-naphthalen-2-yl)acetoxymethyl-1H-1,2,3-triazol-1-yl]acetoxy}olean-12-en-28-oate (Compound 7g)] | 23.9 |
| COc1ccc(C(=O)OCc2cn(CC(=O)O[C@H]3CC[C@]4(C)[C@H]5CC=C6[C@@H]7CC(C)(C)CC[C@]7(C(=O)OCc7ccccc7)CC[C@@]6(C)[C@]5(C)CC[C@H]4C3(C)C)nn2)cc1 [Benzyl 3b-{2-[4-(4-methoxybenzoyloxy)methyl-1H-1,2,3-triazol-1-yl]acetoxy}olean-12-en-28-oate (Compound 7f)] | 38.9 |
| CC1(C)CC[C@]2(C(=O)OCc3ccccc3)CC[C@]3(C)C(=CC[C@@H]4[C@@]5(C)CC[C@H](O)C(C)(C)[C@@H]5CC[C@]43C)[C@@H]2C1 [benzyl (4aS,6aS,6bR,8aR,10S,12aR,12bR,14bS)-10-hydroxy-2,2,6a,6b,9,9,12a-heptamethyl-1,3,4,5,6,7,8,8a,10,11,12,12b,13,14b-tetradecahydropicene-4a-carboxylate (Compound 4)] | 461 |
